This is an account of results in article PMC8468663, “Co-Spray Dried Nafamostat Mesylate with Lecithin and Mannitol as Respirable Microparticles for Targeted Pulmonary Delivery: Pharmacokinetics and Lung Distribution in Rats” (Pharmaceutics, 2021).

Series [1] concerns SARS-CoV-2 entry into host cells. The arrangement: method as in PMID 32312781. The conditions noted are these: cited from earlier work.
The nature of another series: in vivo. The conditions noted are these: rat, 10 mg/kg; for half-life: T½. Also on record: species or system Sprague–Dawley rats. The protocol: The Chungbuk National University Institutional Animal Care and Use Committee approved the experimental protocols and animal care methods used in this study. The first in vivo experiment was a pharmacokinetic study to determine the efficacy of NFM based on the route of administration and to determine the effect of lecithin as a stabilizer. After preparing a 0.5% mannitol solution (w/v), NFM was added at a concentration of 25 mg mL^−1 to prepare solution A. In addition, Tween 80 was added to solution A at 1% (w/v), plus lecithin, which was added at a concentration of 25 mg mL^−1, and stirred to evenly disperse it to produce solution B. Each experiment was carried out using a male SD rat (8 weeks old, 230–250 g) in three groups of 16 animals each. The SD rats were fed a commercial pellet diet and fresh water and housed at room temperature (23 ± 1 °C) with a relative humidity of 50 ± 10%, and a 12 h light and dark cycle. First, the intravenous (IV) group was administered a 100 μL dose of solution A (10 mg·kg^−^1) intravenously through the lateral tail vein. Second, a 100 μL dose of solution A (10 mg kg^−^1) was administered by intratracheal instillation (ITI) to the intratracheal instillation-1 (ITI-1) group. Finally, the ITI-2 group was administered a 100 μL dose of solution B (10 mg·kg^−^1). For the analysis of plasma concentration, blood was collected via the orbital vein 1, 5, 10, 30, and 60 min after administration to each group (n = 4). Blood was collected in a heparin tube and gently shaken. Plasma was immediately separated from the blood samples by centrifugation at 3000 rpm for 2 min. After administration to each group (n = 12), 4 rats were sacrificed at 10, 30, and 60 min. BALF samples were obtained by injecting and extracting 5 mL DW into the lungs of the rats. Lung tissues were placed in 10 mL DW and homogenized at 18,000 rpm for 3 min using a homogenizer. Acetonitrile (ACN) was added to plasma, BALF, and lung tissue samples in a ratio of 1:1 (v/v) to precipitate the proteins, and the sample solutions were centrifuged at 18,000 rpm for 5 min to obtain a supernatant. The supernatant was quantified by HPLC analysis. A second in vivo experiment was performed to determine the efficacy of NFM microparticles in a DPI formulation, focusing on the lung lumen and tissue. First, the solution group was administered a solution at a dose of 0.25 mg NFM per rat by ITI (1 mg·kg^−^1). Second, the SD-NM group was treated using a dry powder insufflator for the intratracheal administration of the SD-NM in the form of DPI at a dose of 0.25 mg of NFM per rat (1 mg·kg^−^1). Finally, the SD-NLM group was administered an SD-NLM at a dose of 0.25 mg of NFM per rat (1 mg kg^−^1) using a dry powder insufflator. BALF and lung tissue samples were prepared using the same procedure as that used for the in vivo study described above. The samples were quantified by HPLC analysis.

The conditions of series [2]: cited from earlier work.
Setting [3] is: male, Sprague-Dawley, Amount of NFM in BALF.
Setting [4] is: male, Sprague-Dawley, inhaled or intranasal.

Where a name gives a salt, the structure may show the parent alone.

The Tmax is the time at which the peak concentration occurs. The term Cmax denotes the highest concentration seen after dosing. By AUC(0-inf) is commonly meant total exposure, with the tail of the curve extrapolated. The low end stands for less exposure, the high end for more exposure. In general, half-life refers to how long it takes for the measured level to halve. For the compound `N=C(N)c1ccc2cc(OC(=O)c3ccc(N=C(N)N)cc3)ccc2c1` [NFM, Nafamostat mesylate], in series [1], the “EC50, inhibition of SARS-CoV-2 entry into host cells” value is given as “low nanomolar range” and the “Efficiency of inhibition of SARS-CoV-2 entry relative to camostat mesylate” value is given as “approximately 15 fold”. For the same compound, the “Amount of NFM in BALF” value in “in vivo” (male, Sprague-Dawley, 10 min) was determined as 4.48 µg/mL. Moreover, in “in vivo” (male, Sprague-Dawley, 30 min), the “Amount of NFM in BALF” value was 1.69 µg/mL. Also, in “in vivo” (setting [3]), the concentration at 10 min stood at 2900 ng/mL and the concentration at 30 min was found to be 1690 ng/mL. Besides, the time of peak concentration (Tmax) in “in vivo” (male, Sprague-Dawley, Tmax) was 5 min. In “in vivo” (setting [4]), the Cmax was determined as 22900 ± 4640 ng/mL, the Tmax is 4.0 ± 1.00 min, the T½ is given as 28.6 ± 3.51 min and the AUC(0-inf) was 11200 ng·h/mL. Further, the half-life in the series “in vivo” (setting [4]) was 26.7 ± 2.6 min. This compound yielded a Cmax in “in vivo” (male, Sprague-Dawley, inhaled or intranasal, Cmax) of 25900 ± 4230 ng/mL. Also, in the series “in vivo” (male, Sprague-Dawley, iv), the “AUC(inf)” value is 436.1 ± 31.59 µg·min/mL, the AUC(0-inf) is 7270 ng·h/mL and the half-life was 13.2 ± 0.52 min. The concentration at 10 min in the series “in vivo” (male, Sprague-Dawley, iv, Amount of NFM in BALF) came to 960 ng/mL. The peak level in the series “in vivo” (male, Sprague-Dawley, iv, Cmax) (Cmax) was 43700 ± 7980 ng/mL. For the same compound, in the series “in vivo”, the “Amount of NFM in BALF” value is “still had remaining NFM in the BALF” and the “Amount of NFM in lung tissue” value is “some residual drug”. In the series “in vivo” (iv), the “Amount of NFM in BALF” value is recorded as “There was no NFM in the BALF”; the “Half-life of ITI-1 and ITI-2 groups relative to IV group” value is given as “approximately twice”. Further, in series [2], the “Half-life in human blood” value is “approximately 3 min”.
